# Assay results from patent US8778923B2, “GLP-1 receptor modulators” (Receptos, Inc., priority 2011, dated 2014).
# Target: T1, GLP-1R (Homo sapiens, UniProt P43220)
# T1 construct: host or cells: CRE-bla CHO-K1
# Test: EC20 GLP-1(9-36) PAM cAMP assay: dose response of compound in the presence of fixed concentration of GLP-1(9-36)
# Assay type: cell-based
# Settings: GLP-1R CRE-bla CHO-K1 cells, compound dose response in presence of fixed concentration of GLP-1(9-36)
# Procedure: EC20 GLP-1(9-36) PAM cAMP Assay: Dose Response of Compound in the Presence of Fixed Concentration of GLP-1 (9-36).
# GLP-1R CRE-bla CHO-K1 cells cultured in growth medium (DMEM-High glucose, 10% dialyzed FBS, 0.1 mM NEAA, 25 mM Hepes, 100 U/mL penicillin/100 μg/mL streptomycin, 5 μg/mL Blasticidin, 600 μg/mL Hygromycin) were tryspsinized and plated in suspension into 384 well white flat bottom plates at 5000 cells/well in 12 μL assay buffer (Hanks Balanced Salt solution, 10 mM Hepes, 0.1% BSA, pH 7.4). A 5× compound dose response curve (12-point) was generated in assay buffer containing 1.5 mM IBMX, 12.5% DMSO. GLP-1(9-36) was diluted to 4.2 μM in assay buffer containing 1.5 mM IBMX and 12.5% DMSO. The 5× compound dose response was added (3 μL), followed by 0.5 μL of GLP-1(9-36) and cells were incubated for 30 min at 37° C. Direct detection of cAMP was carried out using DiscoveRx HitHunter cAMP kit according to manufacturer's instructions and luminescence was read using a SpectraMax M5 plate reader. Luminescence was converted to total cAMP using a cAMP standard curve and data was analyzed by non-linear regression to determine the EC50 and Emax.
# GLP-1(7-36): […]-NH2. GLP-1(9-36): […]-NH2. GLP-1(7-36) was purchased from GenScript. GLP-1(9-36) was purchased from Biopeptide Co., Inc.
# T1 sequence (P43220 24-463): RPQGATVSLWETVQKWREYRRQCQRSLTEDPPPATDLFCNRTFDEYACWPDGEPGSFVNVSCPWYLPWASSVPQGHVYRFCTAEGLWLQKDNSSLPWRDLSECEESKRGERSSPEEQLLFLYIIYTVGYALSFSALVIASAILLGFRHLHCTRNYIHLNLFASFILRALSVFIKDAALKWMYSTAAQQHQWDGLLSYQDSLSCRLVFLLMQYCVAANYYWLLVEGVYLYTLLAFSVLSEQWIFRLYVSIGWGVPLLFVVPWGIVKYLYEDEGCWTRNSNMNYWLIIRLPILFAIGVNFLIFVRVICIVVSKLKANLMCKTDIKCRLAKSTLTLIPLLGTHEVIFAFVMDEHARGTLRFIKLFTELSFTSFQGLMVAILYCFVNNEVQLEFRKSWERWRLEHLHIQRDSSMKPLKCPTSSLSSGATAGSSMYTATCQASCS
# T1 sequence (P01275 100-127 partner limits assumed): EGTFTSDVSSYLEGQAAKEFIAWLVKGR
row,EC50 [µM],Compound
1,0.8 to 2.5,CCCCCCCOc1ccc(-c2cnc(-c3ccc(C[C@H](NC(=O)c4cccc(C)c4)C(=O)O)cc3)nc2)cc1 [Compound 111]
2,0.8 to 2.5,CCCCCCCOc1ccc(-c2cnc(-c3ccc(C[C@H](NC(=O)c4ccc(CC(C)(C)C)cc4)C(=O)O)cc3)nc2)cc1 [Compound 112]
3,0.8 to 2.5,CCCCCCCOc1ccc(-c2cnc(-c3ccc(C[C@H](NC(=O)c4ccc(C(C)=O)cc4)C(=O)O)cc3)nc2)cc1 [Compound 113]
4,0.8 to 2.5,"CCCCCCCOc1ccc(-c2cnc(-c3ccc(C[C@H](NC(=O)c4ccc(O)cc4)C(=O)O)cc3)nc2)cc1 [Compound 114, (S)-3-(4-(5-(4-(heptyloxy)phenyl)pyrimidin-2-yl)phenyl)-2-(4-hydroxybenzamido)propanoic acid]"
5,0.8 to 2.5,CCCCCCCOc1ccc(-c2cnc(-c3ccc(C[C@H](NC(=O)c4ccc(C(N)=O)cc4)C(=O)O)cc3)nc2)cc1 [Compound 115]
6,< 0.8,CCCCCCCOc1ccc(-c2cnc(-c3ccc(C[C@H](NC(=O)c4ccc(C)c(C)c4)C(=O)O)cc3)nc2)cc1 [Compound 117]
7,< 0.8,CCCCCCCOc1ccc(-c2cnc(-c3ccc(C[C@H](NC(=O)c4ccc(OC)c(C)c4)C(=O)O)cc3)nc2)cc1 [Compound 118]
8,< 0.8,CCCCCCCOc1ccc(-c2cnc(-c3ccc(C[C@H](NC(=O)c4ccccc4C)C(=O)O)cc3)nc2)cc1 [Compound 119]
9,0.8 to 2.5,CCCCCCCOc1ccc(-c2cnc(-c3ccc(C[C@H](NC(=O)c4ccc(OC(C)(C)C)cc4)C(=O)O)cc3)nc2)cc1 [Compound 125]
10,0.8 to 2.5,CCCCCCCOc1ccc(-c2cnc(-c3ccc(C[C@H](NC(=O)c4ccc(CO)cc4)C(=O)O)cc3)nc2)cc1 [Compound 126]
11,0.8 to 2.5,CCCCCCCOc1ccc(-c2cnc(-c3ccc(C[C@H](NC(=O)c4ccc(S(=O)(=O)CC)cc4)C(=O)O)cc3)nc2)cc1 [Compound 127]
12,0.8 to 2.5,CCCCCCCOc1ccc(-c2cnc(-c3ccc(C[C@H](NC(=O)c4ccc(C(=O)N(C)C)cc4)C(=O)O)cc3)nc2)cc1 [Compound 128]
13,0.8 to 2.5,CCCCCCCOc1ccc(-c2cnc(-c3ccc(C[C@H](NC(=O)c4ccc(CN(C)C)cc4)C(=O)O)cc3)nc2)cc1 [Compound 134]
14,0.8 to 2.5,CCCCCCCOc1ccc(-c2cnc(-c3ccc(C[C@H](NC(=O)c4ccc(CC)s4)C(=O)O)cc3)nc2)cc1 [Compound 137]
15,0.8 to 2.5,CCCCCCCOc1ccc(-c2cnc(-c3ccc(C[C@H](NC(=O)c4ccc(CC)o4)C(=O)O)cc3)nc2)cc1 [Compound 138]
16,2.5 to 5,CCCCCCCOc1ccc(-c2cnc(-c3ccc(C[C@H](NC(=O)c4csc(C(C)C)c4)C(=O)O)cc3)nc2)cc1 [Compound 146]

# The remaining lines, values behind:
row,Compound,EC50 [µM]
1,CCCCCCCOc1ccc(-c2cnc(-c3ccc(C[C@H](NC(=O)c4c(Cl)ccc(F)c4Cl)C(=O)O)cc3)nc2)cc1 [Compound 116],0.8 to 2.5
2,CCCCCCCOc1ccc(-c2cnc(-c3ccc(C[C@H](NC(=O)c4ccc(OC(F)(F)F)cc4)C(=O)O)cc3)nc2)cc1 [Compound 120],0.8 to 2.5
3,CCCCCCCOc1ccc(-c2cnc(-c3ccc(C[C@H](NC(=O)c4ccc(OCC(C)C)cc4)C(=O)O)cc3)nc2)cc1 [Compound 121],0.8 to 2.5
4,CCCCCCCOc1ccc(-c2cnc(-c3ccc(C[C@H](NC(=O)c4ccc(S(=O)(=O)C(C)C)cc4)C(=O)O)cc3)nc2)cc1 [Compound 122],0.8 to 2.5
5,CCCCCCCOc1ccc(-c2cnc(-c3ccc(C[C@H](NC(=O)c4ccc(S(C)(=O)=O)cc4Cl)C(=O)O)cc3)nc2)cc1 [Compound 123],0.8 to 2.5
6,CCCCCCCOc1ccc(-c2cnc(-c3ccc(C[C@H](NC(=O)c4ccc(NCCCC)cc4)C(=O)O)cc3)nc2)cc1 [Compound 124],0.8 to 2.5
7,CCCCCCCOc1ccc(-c2cnc(-c3ccc(C[C@H](NC(=O)c4ccc(OCCCC)cc4)C(=O)O)cc3)nc2)cc1 [Compound 129],0.8 to 2.5
8,CCCCCCCOc1ccc(-c2cnc(-c3ccc(C[C@H](NC(=O)c4cc(C(C)C)no4)C(=O)O)cc3)nc2)cc1 [Compound 130],< 0.8
9,CCCCCCCOc1ccc(-c2cnc(-c3ccc(C[C@H](NC(=O)c4cnc(C(C)C)nc4)C(=O)O)cc3)nc2)cc1 [Compound 131],0.8 to 2.5
10,CCCCCCCOc1ccc(-c2cnc(-c3ccc(C[C@H](NC(=O)c4coc(C(C)C)n4)C(=O)O)cc3)nc2)cc1 [Compound 132],0.8 to 2.5
11,CCCCCCCOc1ccc(-c2cnc(-c3ccc(C[C@H](NC(=O)c4ccc(C(C)(C)C)o4)C(=O)O)cc3)nc2)cc1 [Compound 133],0.8 to 2.5
12,CCCCCCCOc1ccc(-c2cnc(-c3ccc(C[C@H](NC(=O)c4cc(C(C)C)on4)C(=O)O)cc3)nc2)cc1 [Compound 135],0.8 to 2.5
13,CCCCCCCOc1ccc(-c2cnc(-c3ccc(C[C@H](NC(=O)c4cc(C(C)(C)C)n[nH]4)C(=O)O)cc3)nc2)cc1 [Compound 136],5 to 10
14,CCCCCCCOc1ccc(-c2cnc(-c3ccc(C[C@H](NC(=O)c4cnn(C(C)C)c4)C(=O)O)cc3)nc2)cc1 [Compound 139],0.8 to 2.5
15,CCCCCCCOc1ccc(-c2cnc(-c3ccc(C[C@H](NC(=O)c4ccc(C(F)(F)F)s4)C(=O)O)cc3)nc2)cc1 [Compound 140],2.5 to 5
16,CCCCCCCOc1ccc(-c2cnc(-c3ccc(C[C@H](NC(=O)c4nnc(C(C)(C)C)s4)C(=O)O)cc3)nc2)cc1 [Compound 141],0.8 to 2.5
17,CCCCCCCOc1ccc(-c2cnc(-c3ccc(C[C@H](NC(=O)c4ncc(C(C)(C)C)s4)C(=O)O)cc3)nc2)cc1 [Compound 142],< 0.8
18,CCCCCCCOc1ccc(-c2cnc(-c3ccc(C[C@H](NC(=O)c4cnn(C(C)(C)C)c4)C(=O)O)cc3)nc2)cc1 [Compound 143],< 0.8
19,CCCCCCCOc1ccc(-c2cnc(-c3ccc(C[C@H](NC(=O)c4ccn(C(C)C)n4)C(=O)O)cc3)nc2)cc1 [Compound 144],0.8 to 2.5
20,CCCCCCCOc1ccc(-c2cnc(-c3ccc(C[C@H](NC(=O)c4cc(C)c(CC)s4)C(=O)O)cc3)nc2)cc1 [Compound 145],0.8 to 2.5
21,CCCCCCCOc1ccc(-c2cnc(-c3ccc(C[C@H](NC(=O)c4ccc(CCC)s4)C(=O)O)cc3)nc2)cc1 [Compound 147],2.5 to 5
22,CCCCCCCOc1ccc(-c2cnc(-c3ccc(C[C@H](NC(=O)c4cnc(C(C)C)s4)C(=O)O)cc3)nc2)cc1 [Compound 148],0.8 to 2.5
23,CCCCCCCOc1ccc(-c2cnc(-c3ccc(C[C@H](NC(=O)c4cc5c(s4)CCCC5)C(=O)O)cc3)nc2)cc1 [Compound 149],0.8 to 2.5
24,CCCCCCCOc1ccc(-c2cnc(-c3ccc(C[C@H](NC(=O)c4cc5c(s4)CCC5)C(=O)O)cc3)nc2)cc1 [Compound 150],0.8 to 2.5
25,CCCCCCCOc1ccc(-c2cnc(-c3ccc(C[C@H](NC(=O)c4cc5c(s4)CCC(C)C5)C(=O)O)cc3)nc2)cc1 (stereo partly drawn) [Compound 151],0.8 to 2.5
26,CCCCCCCOc1ccc(-c2cnc(-c3ccc(C[C@H](NC(=O)c4ccc(C(C)C)s4)C(=O)O)cc3)nc2)cc1 [Compound 152],0.8 to 2.5
27,CCCCCCCOc1ccc(-c2cnc(-c3ccc(C[C@H](NC(=O)c4ccc(CC(C)C)s4)C(=O)O)cc3)nc2)cc1 [Compound 153],0.8 to 2.5
28,CCCCCCCOc1ccc(-c2cnc(-c3ccc(C[C@H](NC(=O)c4ccc(C(C)=O)s4)C(=O)O)cc3)nc2)cc1 [Compound 154],< 0.8
29,CCCCCCCOc1ccc(-c2cnc(-c3ccc(C[C@H](NC(=O)Cc4cc5ccccc5s4)C(=O)O)cc3)nc2)cc1 [Compound 155],0.8 to 2.5
